Converted amounts (≈) assume the structure as drawn. The source made the active and inactive calls.

The source of these data is ChEMBL document CHEMBL3046556, “Microwave-assisted synthesis and antimicrobial screening of new imidazole derivatives bearing 4-thiazolidinone nucleus” (2013).

The subject of test [1] is Aspergillus niger. As to the kind of experiment: Antifungal activity against Aspergillus niger MTCC 282 assessed as growth inhibition after 48 hr by broth dilution method. It is filed as functional. Particulars: MTCC 282, 48 h. Background: Broth dilution looks for growth in wells or tubes with falling amounts of substance.
In test [2] the test system is Streptococcus pyogenes. As to the kind of experiment: Antibacterial activity against Streptococcus pyogenes MTCC 442 assessed as growth inhibition after 24 hr by NCCLS broth dilution method. It is filed as functional. To be noted: MTCC 442, 24 h.
The subject of test [3] is Staphylococcus aureus. Kind of test: Antibacterial activity against Staphylococcus aureus MTCC 96 assessed as growth inhibition after 24 hr by NCCLS broth dilution method. It is filed as functional. To be noted: MTCC 96, 24 h.
The subject of test [4] is Escherichia coli. Kind of test: Antibacterial activity against Escherichia coli MTCC 443 assessed as growth inhibition after 24 hr by NCCLS broth dilution method. It is filed as functional. To be noted: MTCC 443, 24 h.
In test [5] the test system is Aspergillus clavatus. Kind of test: Antifungal activity against Aspergillus clavatus MTCC 1323 assessed as growth inhibition after 48 hr by broth dilution method. The class given is functional. Particulars: MTCC 1323, 48 h.
The subject of test [6] is Pseudomonas aeruginosa. Kind of test: Antibacterial activity against Pseudomonas aeruginosa MTCC 1688 assessed as growth inhibition after 24 hr by NCCLS broth dilution method. The class given is functional. To be noted: MTCC 1688, 24 h.
Test [7] concerns Candida albicans. As to the kind of experiment: Antifungal activity against Candida albicans MTCC 227 assessed as growth inhibition after 48 hr by broth dilution method. The class given is functional. To be noted: MTCC 227, 48 h.
Test [8] has as its system Candida albicans. As to the kind of experiment: Antifungal activity against Candida albicans MTCC 227 assessed as growth inhibition at 12.5 to 1000 ug/mL after 48 hr by broth dilution method. It is filed as functional, organism-based.
Test [9] concerns Escherichia coli. Kind of test: Antibacterial activity against Escherichia coli MTCC 443 assessed as growth inhibition at 12.5 to 1000 ug/mL after 24 hr by NCCLS broth dilution method. The class given is functional, organism-based.
Test [10] has as its system Aspergillus clavatus. As to the kind of experiment: Antifungal activity against Aspergillus clavatus MTCC 1323 assessed as growth inhibition at 12.5 to 1000 ug/mL after 48 hr by broth dilution method. The class given is functional, organism-based.
The test system of test [11] is Aspergillus niger. Kind of test: Antifungal activity against Aspergillus niger MTCC 282 assessed as growth inhibition at 12.5 to 1000 ug/mL after 48 hr by broth dilution method. The class given is functional, organism-based.
The test system of test [12] is Streptococcus pyogenes. Kind of test: Antibacterial activity against Streptococcus pyogenes MTCC 442 assessed as growth inhibition at 12.5 to 1000 ug/mL after 24 hr by NCCLS broth dilution method. The class given is functional, organism-based.
The test system of test [13] is Staphylococcus aureus. As to the kind of experiment: Antibacterial activity against Staphylococcus aureus MTCC 96 assessed as growth inhibition at 12.5 to 1000 ug/mL after 24 hr by NCCLS broth dilution method. It is filed as functional, organism-based.
In test [14] the test system is Pseudomonas aeruginosa. Kind of test: Antibacterial activity against Pseudomonas aeruginosa MTCC 1688 assessed as growth inhibition at 12.5 to 1000 ug/mL after 24 hr by NCCLS broth dilution method. It is filed as functional, organism-based.

On to `CC1=N/C(=C\c2ccccc2)C(=O)N1c1ccc(/C(C)=N/N=C2/NC(=O)CS2)cc1`, for which the MIC in test [1] was 500 µg/mL (≈ 1200 µM); in test [2], 1000 µg/mL (≈ 2400 µM); in test [3] it was 250 µg/mL (≈ 599 µM); in [4] it was 1000 µg/mL (≈ 2400 µM); in [5], 500 µg/mL (≈ 1200 µM); in [6] it was 500 µg/mL (≈ 1200 µM). In [7], the minimal inhibitory concentration (MIC) is 1000 µg/mL (≈ 2400 µM).
Consider `CC1=N/C(=C\c2ccccc2F)C(=O)N1c1ccc(/C(C)=N/N=C2/NC(=O)CS2)cc1`, for which the MIC stood at 500 µg/mL (≈ 1150 µM) in test [1]; 100 µg/mL (≈ 230 µM) in test [2]; 500 µg/mL (≈ 1150 µM) in test [3]; 250 µg/mL (≈ 574 µM) in [4]; 500 µg/mL (≈ 1150 µM) in [5]; 500 µg/mL (≈ 1150 µM) in [6]. Also, the minimal inhibitory concentration (MIC) in test [7] is 1000 µg/mL (≈ 2300 µM).
Turning to `CC1=N/C(=C\c2ccc(Cl)cc2)C(=O)N1c1ccc(/C(C)=N/N=C2/NC(=O)CS2)cc1`, the MIC in test [1] amounted to 500 µg/mL (≈ 1110 µM); in test [2] it was 100 µg/mL (≈ 221 µM); in [3], 250 µg/mL (≈ 553 µM); in [4], 1000 µg/mL (≈ 2210 µM); in test [5], 250 µg/mL (≈ 553 µM); in test [6], 250 µg/mL (≈ 553 µM). Besides, the MIC in test [7] turned out to be 500 µg/mL (≈ 1110 µM).
Consider `CC1=N/C(=C\c2ccccc2[N+](=O)[O-])C(=O)N1c1ccc(/C(C)=N/N=C2/NC(=O)CS2)cc1`, for which the MIC in [1] was 500 µg/mL (≈ 1080 µM); in test [2], 100 µg/mL (≈ 216 µM); in test [3] it was 250 µg/mL (≈ 541 µM); in [4] it was 100 µg/mL (≈ 216 µM); in [5], 500 µg/mL (≈ 1080 µM); in [6], 500 µg/mL (≈ 1080 µM). Further, the minimum inhibitory concentration (MIC) in test [7] amounted to 500 µg/mL (≈ 1080 µM).
For `CC1=N/C(=C\c2ccc(O)cc2)C(=O)N1c1ccc(/C(C)=N/N=C2/NC(=O)CS2)cc1`, the MIC was determined as 50 µg/mL (≈ 115 µM) in test [1]; 50 µg/mL (≈ 115 µM) in test [2]; 50 µg/mL (≈ 115 µM) in [3]; 50 µg/mL (≈ 115 µM) in test [4]; 100 µg/mL (≈ 231 µM) in test [5]; 100 µg/mL (≈ 231 µM) in test [6]. Besides, the MIC in [7] came out at 50 µg/mL (≈ 115 µM).
As to `CC1=N/C(=C/c2ccc(O)cc2)C(=O)N1c1ccc(/C(C)=N/NC(N)=S)cc1`, the “growth inhibition (GI)” value in [8], in test [10] and in [11] was “Active” each time. Besides, the MIC in test [2], in [3] and in test [6] was 500 µg/mL (≈ 1270 µM) each time. Further, the “growth inhibition (GI)” value in test [9] was “inactive”.
On to `CC1=N/C(=C/c2ccccc2O)C(=O)N1c1ccc(/C(C)=N/NC(N)=S)cc1`, for which the “growth inhibition (GI)” value in [8], in test [10] and in test [11] was “Active” throughout. Further, the MIC in [2], in [3] and in test [6] was 500 µg/mL (≈ 1270 µM) in each case. Besides, in test [9], the “growth inhibition (GI)” value is “inactive”.
For `CC(=O)c1ccc(N2C(=O)/C(=C\c3ccccc3O)N=C2C)cc1`, the “growth inhibition (GI)” value in [9], in test [12], in test [13] and in [14] was “inactive” each time. Besides, the MIC in test [5] and in test [7] was 1000 µg/mL (≈ 3120 µM) throughout.
Regarding `CC1=N/C(=C\c2ccc(C)cc2)C(=O)N1c1ccc(/C(C)=N/N=C2/NC(=O)CS2)cc1`, the MIC in test [1] turned out to be 12.5 µg/mL (≈ 29 µM); in test [2] it was 25 µg/mL (≈ 57.9 µM); in test [3] it was 12.5 µg/mL (≈ 29 µM); in test [4] it was 50 µg/mL (≈ 116 µM); in test [5], 50 µg/mL (≈ 116 µM); in test [6], 250 µg/mL (≈ 579 µM). Further, the MIC in [7] is 250 µg/mL (≈ 579 µM).
For the compound `CC1=N/C(=C/c2cccc(C)c2)C(=O)N1c1ccc(/C(C)=N/NC(N)=S)cc1`, the “growth inhibition (GI)” value in [8], in test [10] and in test [11] was “Active” in each case. Also, the “growth inhibition (GI)” value in test [12] and in test [14] was “inactive” in each case. Further, the MIC stood at 500 µg/mL (≈ 1280 µM) in [3] and 1000 µg/mL (≈ 2550 µM) in test [4].
As to `CC1=N/C(=C\c2ccc([N+](=O)[O-])cc2)C(=O)N1c1ccc(/C(C)=N/N=C2/NC(=O)CS2)cc1`, the MIC in [1] was found to be 250 µg/mL (≈ 541 µM); in test [2] it was 250 µg/mL (≈ 541 µM); in test [3], 250 µg/mL (≈ 541 µM); in test [4] it was 500 µg/mL (≈ 1080 µM); in test [5], 100 µg/mL (≈ 216 µM); in test [6], 100 µg/mL (≈ 216 µM). The MIC in test [7] is 500 µg/mL (≈ 1080 µM).
For the compound `CC1(C)S[C@@H]2[C@H](NC(=O)[C@H](N)c3ccccc3)C(=O)N2[C@H]1C(=O)O` [AMPICILLIN], the MIC in test [2] worked out at 100 µg/mL (≈ 286 µM); in [3], 100 µg/mL (≈ 286 µM); in [4], 250 µg/mL (≈ 715 µM); in [6], 100 µg/mL (≈ 286 µM).
On to `COc1ccccc1/C=C1\N=C(C)N(c2ccc(/C(C)=N/N=C3/NC(=O)CS3)cc2)C1=O`, for which the MIC in [1] stood at 100 µg/mL (≈ 223 µM); in test [2] it was 100 µg/mL (≈ 223 µM); in test [3], 50 µg/mL (≈ 112 µM); in test [4], 250 µg/mL (≈ 559 µM); in test [5], 25 µg/mL (≈ 55.9 µM); in test [6], 50 µg/mL (≈ 112 µM). In addition, in test [7], the MIC amounted to 500 µg/mL (≈ 1120 µM).
`CC1=N/C(=C/c2ccc(C)cc2)C(=O)N1c1ccc(/C(C)=N/NC(N)=S)cc1`: the “growth inhibition (GI)” value in test [8], in test [10] and in test [11] was “Active” in each case. In addition, the MIC in test [2], in test [3] and in test [6] was 500 µg/mL (≈ 1280 µM) in each case. Besides, the “growth inhibition (GI)” value in test [9] was “inactive”.
Take `CC(=O)c1ccc(N2C(=O)/C(=C\c3ccc(C)cc3)N=C2C)cc1`: the MIC was found to be 250 µg/mL (≈ 785 µM) in test [1], 1000 µg/mL (≈ 3140 µM) in test [3], 1000 µg/mL (≈ 3140 µM) in [4] and 250 µg/mL (≈ 785 µM) in test [5]. Besides, the “growth inhibition (GI)” value in test [8], in [10], in test [12] and in test [14] was “inactive” in each case.
Take `CC(=O)c1ccc(N2C(=O)/C(=C\c3ccc(O)cc3)N=C2C)cc1`: the “growth inhibition (GI)” value in [11], in [12] and in [14] was “inactive” each time. Further, the MIC in test [3], in [4], in [5] and in [7] was 1000 µg/mL (≈ 3120 µM) throughout.
Consider `COc1ccc(/C=C2/N=C(C)N(c3ccc(/C(C)=N/NC(N)=S)cc3)C2=O)cc1`, for which the “growth inhibition (GI)” value in [8], in test [10] and in test [11] was “Active” in each case. Further, the MIC in [2], in test [3] and in test [6] was 500 µg/mL (≈ 1230 µM) in each case. Also, the “growth inhibition (GI)” value in [9] is “inactive”.
On to `COc1ccccc1/C=C1/N=C(C)N(c2ccc(C(C)=O)cc2)C1=O`, for which the MIC in test [1] and in [5] was 250 µg/mL (≈ 748 µM) in each case. Also, the “growth inhibition (GI)” value in test [8], in test [9], in [10], in [12], in [13] and in [14] was “inactive” each time.
For `COC1=CC(=O)C[C@@H](C)[C@]12Oc1c(Cl)c(OC)cc(OC)c1C2=O` [GRISEOFULVIN], the MIC in [1] worked out at 100 µg/mL (≈ 283 µM); in [5], 100 µg/mL (≈ 283 µM); in test [7] it was 500 µg/mL (≈ 1420 µM).
Turning to `CC1=N/C(=C\c2cccc(O)c2)C(=O)N1c1ccc(/C(C)=N/N=C2/NC(=O)CS2)cc1`, the minimal inhibitory concentration (MIC) amounted to 250 µg/mL (≈ 577 µM) in test [1]; 250 µg/mL (≈ 577 µM) in test [2]; 100 µg/mL (≈ 231 µM) in test [3]; 250 µg/mL (≈ 577 µM) in test [4]; 250 µg/mL (≈ 577 µM) in test [5]; 250 µg/mL (≈ 577 µM) in test [6]. Moreover, the MIC in test [7] stood at 500 µg/mL (≈ 1150 µM).

As usually defined, the MIC is the smallest concentration in the dilution series that meets the test's criterion for growth inhibition.
